Each structure is given as a SMILES string.

The assay deals with MCF7. Put plainly: Percent inhibition of estrogen receptor positive MCF-7 human breast cancer cell proliferation at 10e-7 M. Format: functional.
In turn, `ClC1(Cl)C(c2ccccc2)C1c1ccccc1` (configuration not stated) came in with an inhibition at 0.1 µM of 60%. The molecule `COc1ccc(C2(c3ccccc3)C(c3ccccc3)C2(Cl)Cl)cc1` (configuration not stated) displayed an inhibition at 0.1 µM of 35%. `COc1ccc(C2(c3ccc(OCc4ccccc4)cc3)C(c3ccccc3)C2(Cl)Cl)cc1` (configuration not stated) gave an inhibition at 0.1 µM of 46%. The figure for `COc1ccc(C2C(Cl)(Cl)C2(c2ccc(OC)cc2)c2ccc(OCc3ccccc3)cc2)cc1` (configuration not stated) is 35%; for `CC/C(=C(\c1ccccc1)c1ccc(OCCN(C)C)cc1)c1ccccc1` [TAMOXIFEN] it is 52%; for `COc1ccc(C2(c3ccc(OCCN(C)C)cc3)C(c3ccccc3)C2(Cl)Cl)cc1` (configuration not stated) it is 35%. The figure for `CN(C)CCOc1ccc(C2(c3ccccc3)C(c3ccccc3)C2(Cl)Cl)cc1` (configuration not stated) is 41%.

For the origin of these results see ChEMBL document CHEMBL1127844, “Molecular structures and conformational studies of triarylcyclopropyl and related nonsteroidal antiestrogens” (J Med Chem, 1994).
